Test results taken from ChEMBL document CHEMBL4507291 (2021).

Experiments:
[1] = target: Platelet-activating factor receptor (Homo sapiens) (UniProt P25105); test: Inhibition of Platelet Activating Factor (PAF) at 10 µM in the Eurofins-Panlabs radioligand binding assay (Eurofins_assay_265010); details: Compound concentration 10.0 uM
[2] = target: T1, G protein-coupled receptor kinase 3 (Homo sapiens) (UniProt P35626); test: ADRBK2 (GRK3) Kinase screen; details: Compound concentration 1.0 uM
T1 sequence (whole entry): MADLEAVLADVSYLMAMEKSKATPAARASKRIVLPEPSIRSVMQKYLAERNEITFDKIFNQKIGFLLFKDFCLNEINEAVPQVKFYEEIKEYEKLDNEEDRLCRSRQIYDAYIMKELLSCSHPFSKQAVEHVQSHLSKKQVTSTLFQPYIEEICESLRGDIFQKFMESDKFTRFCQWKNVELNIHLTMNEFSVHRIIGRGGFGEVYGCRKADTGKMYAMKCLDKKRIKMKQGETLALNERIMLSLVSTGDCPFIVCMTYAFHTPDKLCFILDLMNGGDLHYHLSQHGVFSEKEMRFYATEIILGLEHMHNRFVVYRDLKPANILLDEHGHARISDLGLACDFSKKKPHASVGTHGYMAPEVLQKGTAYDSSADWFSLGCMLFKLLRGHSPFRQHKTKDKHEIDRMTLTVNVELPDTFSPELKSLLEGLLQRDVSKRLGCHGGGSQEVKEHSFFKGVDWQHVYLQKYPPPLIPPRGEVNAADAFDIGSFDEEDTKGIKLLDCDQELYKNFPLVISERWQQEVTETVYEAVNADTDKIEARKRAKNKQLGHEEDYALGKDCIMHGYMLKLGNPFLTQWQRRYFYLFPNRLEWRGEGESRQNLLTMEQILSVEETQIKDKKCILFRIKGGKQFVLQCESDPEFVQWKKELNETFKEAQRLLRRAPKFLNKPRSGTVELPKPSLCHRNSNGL

[3] = target: T2, Aurora kinase A (Homo sapiens) (UniProt O14965); test: AURKA (Aurora A) Kinase screen; details: Compound concentration 1.0 uM
T2 sequence (whole entry): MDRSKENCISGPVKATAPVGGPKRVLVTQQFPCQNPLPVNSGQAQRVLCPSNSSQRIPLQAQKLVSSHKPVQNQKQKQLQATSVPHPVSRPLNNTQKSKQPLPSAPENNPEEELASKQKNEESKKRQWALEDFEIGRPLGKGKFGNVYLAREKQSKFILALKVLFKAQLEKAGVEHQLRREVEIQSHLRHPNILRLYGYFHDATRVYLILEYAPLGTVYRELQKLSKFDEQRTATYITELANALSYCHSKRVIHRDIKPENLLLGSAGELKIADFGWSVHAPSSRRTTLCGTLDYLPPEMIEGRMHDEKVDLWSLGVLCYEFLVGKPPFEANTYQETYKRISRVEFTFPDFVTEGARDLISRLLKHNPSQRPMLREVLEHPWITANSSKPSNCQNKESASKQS

[4] = target: Aurora kinase B (Homo sapiens) (UniProt Q96GD4); test: AURKB (Aurora B) Kinase screen; details: Compound concentration 1.0 uM
[5] = target: Macrophage colony-stimulating factor 1 receptor (Homo sapiens) (UniProt P07333); test: CSF1R (FMS) Kinase screen; details: Compound concentration 1.0 uM
[6] = target: Glycogen synthase kinase-3 beta (Homo sapiens) (UniProt P49841); test: GSK3B (GSK3 beta) Kinase screen; details: Compound concentration 1.0 uM
[7] = target: T3, Inhibitor of nuclear factor kappa-B kinase subunit epsilon (Homo sapiens) (UniProt Q14164); test: IKBKE (IKK epsilon) Kinase screen; details: Compound concentration 1.0 uM
T3 sequence (whole entry): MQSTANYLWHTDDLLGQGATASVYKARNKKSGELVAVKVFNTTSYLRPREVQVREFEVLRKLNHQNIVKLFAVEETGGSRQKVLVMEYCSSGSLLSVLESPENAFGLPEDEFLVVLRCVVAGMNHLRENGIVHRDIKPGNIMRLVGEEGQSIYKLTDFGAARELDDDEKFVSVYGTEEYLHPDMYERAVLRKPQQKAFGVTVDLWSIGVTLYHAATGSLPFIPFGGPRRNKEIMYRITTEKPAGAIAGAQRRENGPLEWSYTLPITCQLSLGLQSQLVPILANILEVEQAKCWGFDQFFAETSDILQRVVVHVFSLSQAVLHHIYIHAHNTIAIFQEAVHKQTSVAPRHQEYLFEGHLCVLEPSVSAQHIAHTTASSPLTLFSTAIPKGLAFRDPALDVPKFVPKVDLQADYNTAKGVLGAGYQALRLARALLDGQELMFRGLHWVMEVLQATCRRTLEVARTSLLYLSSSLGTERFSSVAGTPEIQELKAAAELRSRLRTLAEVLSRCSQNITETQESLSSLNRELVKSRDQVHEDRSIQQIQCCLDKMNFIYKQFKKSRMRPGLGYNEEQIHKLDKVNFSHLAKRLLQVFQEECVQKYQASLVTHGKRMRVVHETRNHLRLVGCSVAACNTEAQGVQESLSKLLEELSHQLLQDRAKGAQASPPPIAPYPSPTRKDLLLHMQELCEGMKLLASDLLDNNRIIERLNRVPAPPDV

[8] = target: Mast/stem cell growth factor receptor Kit (Homo sapiens) (UniProt P10721); test: KIT Kinase screen; details: Compound concentration 1.0 uM
[9] = target: Mitogen-activated protein kinase 8 (Homo sapiens) (UniProt P45983); test: MAPK8 (JNK1) Kinase screen; details: Compound concentration 1.0 uM
[10] = target: NT-3 growth factor receptor (Homo sapiens) (UniProt Q16288); test: NTRK3 (TRKC) Kinase screen; details: Compound concentration 1.0 uM
[11] = target: Serine/threonine-protein kinase PAK 6 (Homo sapiens) (UniProt Q9NQU5); test: PAK6 Kinase screen; details: Compound concentration 1.0 uM
[12] = target: Serine/threonine-protein kinase PAK 5 (Homo sapiens) (UniProt Q9P286); test: PAK7 (KIAA1264) Kinase screen; details: Compound concentration 1.0 uM
[13] = target: Serine/threonine-protein kinase PLK2 (Homo sapiens) (UniProt Q9NYY3); test: PLK2 Kinase screen; details: Compound concentration 1.0 uM
[14] = target: SRSF protein kinase 2 (Homo sapiens) (UniProt P78362); test: SRPK2 Kinase screen; details: Compound concentration 1.0 uM
[15] = target: Adrenomedullin receptor AM1; CALCRL/RAMP2 (Homo sapiens) (UniProt O60895+Q16602); test: Adrenomedullin AM1 Eurofins-Panlabs radioligand binding assay; format: protein-complex assay; details: Compound concentration 10.0 uM
[16] = target: Sodium-dependent dopamine transporter (Homo sapiens) (UniProt Q01959); details: Compound concentration 10.0 uM
Rattus norvegicus = species on record: Rattus norvegicus; details: Compound concentration 10.0 uM

Measured: inhibition

Mitogen-activated protein kinase 8 (Homo sapiens), sequence (P45983 whole entry): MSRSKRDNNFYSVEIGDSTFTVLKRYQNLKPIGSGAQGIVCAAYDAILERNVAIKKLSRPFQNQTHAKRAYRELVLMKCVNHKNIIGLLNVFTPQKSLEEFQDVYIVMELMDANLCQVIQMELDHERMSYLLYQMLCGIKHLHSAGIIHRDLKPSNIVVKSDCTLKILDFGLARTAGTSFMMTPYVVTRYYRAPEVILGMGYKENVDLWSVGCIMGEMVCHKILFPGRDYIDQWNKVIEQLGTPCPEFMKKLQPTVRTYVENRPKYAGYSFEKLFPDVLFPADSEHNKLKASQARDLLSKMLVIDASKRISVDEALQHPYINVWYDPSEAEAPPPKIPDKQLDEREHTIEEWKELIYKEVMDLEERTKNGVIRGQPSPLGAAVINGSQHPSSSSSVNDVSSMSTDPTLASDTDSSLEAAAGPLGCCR
SRSF protein kinase 2 (Homo sapiens), sequence (P78362 whole entry, looked up): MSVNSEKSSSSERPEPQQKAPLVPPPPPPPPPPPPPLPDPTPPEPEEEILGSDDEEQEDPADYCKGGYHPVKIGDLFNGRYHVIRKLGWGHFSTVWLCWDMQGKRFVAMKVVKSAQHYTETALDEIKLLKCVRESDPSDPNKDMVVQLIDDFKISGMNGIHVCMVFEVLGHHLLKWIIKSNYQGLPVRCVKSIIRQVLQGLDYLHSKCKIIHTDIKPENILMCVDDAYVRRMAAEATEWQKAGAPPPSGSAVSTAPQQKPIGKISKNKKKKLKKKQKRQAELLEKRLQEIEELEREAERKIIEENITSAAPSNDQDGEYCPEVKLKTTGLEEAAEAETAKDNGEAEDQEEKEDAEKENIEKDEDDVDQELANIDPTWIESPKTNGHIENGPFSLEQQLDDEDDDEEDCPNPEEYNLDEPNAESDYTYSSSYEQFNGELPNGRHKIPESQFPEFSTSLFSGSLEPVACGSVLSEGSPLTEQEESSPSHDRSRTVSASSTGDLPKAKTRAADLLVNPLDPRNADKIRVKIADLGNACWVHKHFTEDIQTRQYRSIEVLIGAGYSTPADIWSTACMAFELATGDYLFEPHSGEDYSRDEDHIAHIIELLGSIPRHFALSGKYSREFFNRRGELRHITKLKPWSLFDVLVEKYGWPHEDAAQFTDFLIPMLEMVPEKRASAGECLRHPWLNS
Glycogen synthase kinase-3 beta (Homo sapiens), sequence (P49841 whole entry, looked up): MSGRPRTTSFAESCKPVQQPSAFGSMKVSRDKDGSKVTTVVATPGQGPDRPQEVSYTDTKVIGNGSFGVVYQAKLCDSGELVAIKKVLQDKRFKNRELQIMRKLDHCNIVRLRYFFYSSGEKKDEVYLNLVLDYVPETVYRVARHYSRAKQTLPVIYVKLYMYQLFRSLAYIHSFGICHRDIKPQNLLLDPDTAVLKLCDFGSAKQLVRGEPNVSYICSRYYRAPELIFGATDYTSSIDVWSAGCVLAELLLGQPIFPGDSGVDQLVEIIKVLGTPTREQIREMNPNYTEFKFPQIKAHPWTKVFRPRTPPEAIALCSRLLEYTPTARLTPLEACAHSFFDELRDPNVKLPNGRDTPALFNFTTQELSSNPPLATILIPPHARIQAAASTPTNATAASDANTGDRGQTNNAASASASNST
Macrophage colony-stimulating factor 1 receptor (Homo sapiens), sequence (P07333 whole entry): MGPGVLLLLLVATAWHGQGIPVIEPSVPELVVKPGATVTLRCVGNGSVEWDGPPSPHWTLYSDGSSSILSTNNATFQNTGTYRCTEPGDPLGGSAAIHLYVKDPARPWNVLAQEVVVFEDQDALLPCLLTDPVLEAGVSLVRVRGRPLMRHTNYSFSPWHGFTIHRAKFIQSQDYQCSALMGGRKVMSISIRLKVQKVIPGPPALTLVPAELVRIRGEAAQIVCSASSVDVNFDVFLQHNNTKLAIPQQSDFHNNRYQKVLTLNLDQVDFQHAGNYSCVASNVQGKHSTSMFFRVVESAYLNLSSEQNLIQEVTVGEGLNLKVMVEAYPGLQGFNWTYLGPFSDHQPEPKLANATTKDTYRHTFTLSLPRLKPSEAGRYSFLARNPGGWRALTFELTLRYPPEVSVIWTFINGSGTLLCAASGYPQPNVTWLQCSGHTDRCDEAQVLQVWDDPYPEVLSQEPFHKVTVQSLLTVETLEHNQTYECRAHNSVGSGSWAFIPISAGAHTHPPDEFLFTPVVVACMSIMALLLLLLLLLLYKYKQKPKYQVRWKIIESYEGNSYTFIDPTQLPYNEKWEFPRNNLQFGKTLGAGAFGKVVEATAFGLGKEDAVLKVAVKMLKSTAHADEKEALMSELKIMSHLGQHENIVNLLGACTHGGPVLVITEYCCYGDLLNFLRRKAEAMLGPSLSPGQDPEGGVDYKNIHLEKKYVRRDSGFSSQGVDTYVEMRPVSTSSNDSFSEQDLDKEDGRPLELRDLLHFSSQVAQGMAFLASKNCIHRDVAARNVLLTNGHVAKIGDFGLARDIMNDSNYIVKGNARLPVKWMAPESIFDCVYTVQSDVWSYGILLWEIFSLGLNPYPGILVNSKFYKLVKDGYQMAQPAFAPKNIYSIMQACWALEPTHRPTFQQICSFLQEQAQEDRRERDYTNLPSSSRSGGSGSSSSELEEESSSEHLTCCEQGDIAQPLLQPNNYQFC
Serine/threonine-protein kinase PAK 6 (Homo sapiens), sequence (Q9NQU5 whole entry, looked up): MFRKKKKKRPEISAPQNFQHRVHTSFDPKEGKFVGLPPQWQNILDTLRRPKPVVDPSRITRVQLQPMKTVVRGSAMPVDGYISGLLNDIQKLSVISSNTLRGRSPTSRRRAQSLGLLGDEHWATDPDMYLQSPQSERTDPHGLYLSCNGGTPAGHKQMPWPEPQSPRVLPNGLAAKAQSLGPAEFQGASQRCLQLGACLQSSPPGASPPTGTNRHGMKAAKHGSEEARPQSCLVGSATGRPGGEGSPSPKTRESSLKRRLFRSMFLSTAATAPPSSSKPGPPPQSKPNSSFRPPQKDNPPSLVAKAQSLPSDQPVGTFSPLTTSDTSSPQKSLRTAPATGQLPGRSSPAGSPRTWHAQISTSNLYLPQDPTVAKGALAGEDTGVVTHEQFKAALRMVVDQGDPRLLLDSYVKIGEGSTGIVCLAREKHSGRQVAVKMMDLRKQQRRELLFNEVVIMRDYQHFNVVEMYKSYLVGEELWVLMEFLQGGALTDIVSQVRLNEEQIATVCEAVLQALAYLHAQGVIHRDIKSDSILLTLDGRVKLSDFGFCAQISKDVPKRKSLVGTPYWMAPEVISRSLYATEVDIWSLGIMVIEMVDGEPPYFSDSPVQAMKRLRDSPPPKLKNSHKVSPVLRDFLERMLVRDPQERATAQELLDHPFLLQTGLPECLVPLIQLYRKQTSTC
Aurora kinase B (Homo sapiens), sequence (Q96GD4 whole entry): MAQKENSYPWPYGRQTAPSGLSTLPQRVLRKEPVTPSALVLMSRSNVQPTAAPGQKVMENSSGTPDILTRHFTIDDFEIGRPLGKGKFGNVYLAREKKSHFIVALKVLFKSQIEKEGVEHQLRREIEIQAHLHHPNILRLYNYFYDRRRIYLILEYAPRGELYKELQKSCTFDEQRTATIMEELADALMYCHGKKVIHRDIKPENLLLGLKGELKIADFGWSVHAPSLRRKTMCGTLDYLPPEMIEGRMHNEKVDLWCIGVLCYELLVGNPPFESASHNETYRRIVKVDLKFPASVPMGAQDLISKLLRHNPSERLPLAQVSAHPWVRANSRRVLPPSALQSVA
Serine/threonine-protein kinase PLK2 (Homo sapiens), sequence (Q9NYY3 whole entry, looked up): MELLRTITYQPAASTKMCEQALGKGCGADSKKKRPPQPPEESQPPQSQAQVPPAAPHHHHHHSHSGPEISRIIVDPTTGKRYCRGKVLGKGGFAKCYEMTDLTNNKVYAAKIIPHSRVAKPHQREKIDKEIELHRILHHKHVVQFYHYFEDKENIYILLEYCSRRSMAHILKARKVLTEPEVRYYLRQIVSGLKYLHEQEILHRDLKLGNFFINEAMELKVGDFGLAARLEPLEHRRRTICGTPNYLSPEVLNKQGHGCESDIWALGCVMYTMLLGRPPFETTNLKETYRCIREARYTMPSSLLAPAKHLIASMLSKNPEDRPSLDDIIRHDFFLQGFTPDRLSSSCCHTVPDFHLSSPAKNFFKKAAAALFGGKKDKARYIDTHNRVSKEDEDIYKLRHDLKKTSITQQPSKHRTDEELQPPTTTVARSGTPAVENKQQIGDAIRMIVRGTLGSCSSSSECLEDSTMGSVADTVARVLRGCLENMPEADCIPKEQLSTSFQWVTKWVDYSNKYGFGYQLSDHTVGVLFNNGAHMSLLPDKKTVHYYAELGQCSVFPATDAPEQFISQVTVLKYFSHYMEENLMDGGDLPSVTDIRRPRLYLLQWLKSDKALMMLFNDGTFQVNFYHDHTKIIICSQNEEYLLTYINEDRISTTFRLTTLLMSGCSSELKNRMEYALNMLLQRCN
Platelet-activating factor receptor (Homo sapiens), sequence (P25105 whole entry): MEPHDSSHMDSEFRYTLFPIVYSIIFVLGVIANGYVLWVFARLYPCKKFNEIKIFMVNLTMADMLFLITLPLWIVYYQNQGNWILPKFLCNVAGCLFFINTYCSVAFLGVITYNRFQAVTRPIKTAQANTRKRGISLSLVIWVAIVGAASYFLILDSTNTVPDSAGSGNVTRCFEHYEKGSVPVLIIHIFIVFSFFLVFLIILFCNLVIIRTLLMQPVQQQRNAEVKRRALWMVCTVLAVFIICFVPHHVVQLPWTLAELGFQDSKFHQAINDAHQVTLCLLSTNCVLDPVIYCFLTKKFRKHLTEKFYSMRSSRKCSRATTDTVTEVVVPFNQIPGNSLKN

C[C@@H]1CN(c2cc(-c3n[nH]c4ccc(OC5(C)CC5)cc34)ncn2)C[C@H](C)O1 [MLi-2]
inactive: [1] 33% | [2] -0.166% | [3] -0.211% | [4] 16.2% | [5] 6.91% | [6] 3.53% | [7] 1.77% | [8] 5.52% | [9] -0.139% | [10] 14.9% | [11] 1.67% | [12] 5.96% | [13] 12.7% | [14] 0.838% | [15] -8% | [16] 16% | Rattus norvegicus 0%
